From patent US9833497B2, “Human originated EGF domain proteins and use of the same” (CHENGDU SOURCEBIO LIMITED-LIABILITY COMPANY, priority 2013, dated 2017)

What was measured:
Type in all cases: cell-based
Proteus vulgaris = assay: MIC against Gram-negative bacteria: Proteus vulgaris; settings: 5×10^5 CFU/mL
Method in brief: (§1)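 MIC, the lowest recombinant protein concentration giving no bacterial growth, found by two-fold serial dilution of human EGF-domain proteins in triplicate. Inoculum 5×10^5 CFU/mL in LB from cultures at McFarland 0.5; plates incubated at 37° C, 175 rpm shaking.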

E. coli BL21 = assay: MIC against Gram-negative bacteria: E. coli BL21; settings: 5×10^5 CFU/mL
Method in brief: as §1

Pseudomonas aeruginosa = assay: MIC against Gram-negative bacteria: Pseudomonas aeruginosa; settings: 5×10^5 CFU/mL
Method in brief: as §1

Enterobacter cloacae = assay: MIC against Gram-negative bacteria: Enterobacter cloacae; settings: 5×10^5 CFU/mL
Method in brief: as §1

Moraxella catarrhalis = assay: MIC against Gram-negative bacteria: Moraxella catarrhalis; settings: 5×10^5 CFU/mL
Method in brief: as §1

Serratia marcescens = assay: MIC against Gram-negative bacteria: Serratia marcescens; settings: 5×10^5 CFU/mL
Method in brief: as §1

Klebsiella pneumonia = assay: MIC against Gram-negative bacteria: Klebsiella pneumonia; settings: 5×10^5 CFU/mL
Method in brief: as §1

Proteus mirabilis = assay: MIC against Gram-negative bacteria: Proteus mirabilis; settings: 5×10^5 CFU/mL
Method in brief: as §1

E. coli DH5α = assay: Antibacterial activity: MIC and growth curve against E. coli DH5α in 96-well plate; settings: minimal inhibitory concentration against E. coli DH5α; 96-well plate, 5×10^5 CFU/mL, 37° C., judged after 8 h
Method in brief: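 Log-phase bacteria (OD600 ~0.5) resuspended in LB at 5×10^5 CFU/mL, exposed to recombinant protein at 50, 25, 12.5 μg/mL final in triplicate, 37 °C shaking at 175 rpm. OD600 read every 30 min; MIC is lowest concentration showing no growth.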

Citrobacter diversus = assay: MIC against Gram-negative bacteria: Citrobacter diversus; settings: 5×10^5 CFU/mL
Method in brief: as §1

Aeromonas hydrophila = assay: MIC against Gram-negative bacteria: Aeromonas hydrophila; settings: 5×10^5 CFU/mL
Method in brief: as §1

[1] = E. coli BL21, 10 h cultivation at 37° C.
[2] = Proteus vulgaris, 10 h cultivation at 37° C.
[3] = Pseudomonas aeruginosa, 10 h cultivation at 37° C.
[4] = Enterobacter cloacae, 10 h cultivation at 37° C.
[5] = Moraxella catarrhalis, 10 h cultivation at 37° C.
[6] = Serratia marcescens, 10 h cultivation at 37° C.
[7] = Klebsiella pneumonia, 10 h cultivation at 37° C.
[8] = Proteus mirabilis, 10 h cultivation at 37° C.
[9] = Citrobacter diversus, 10 h cultivation at 37° C.
[10] = Aeromonas hydrophila, 10 h cultivation at 37° C.

“PRT211 (DIDECSYSSYLCQYRCVNEPGRFSCHCPQGYQ; listed as Homo sapiens)” was tested, and the “MIC (μg/mL) P. vulgaris” value (Proteus vulgaris; 10 h cultivation at 37° C.) was 50 µg/mL, the “MIC (μg/mL) E. coli BL21” value (E. coli BL21; [1]) was 12.5 µg/mL and the “MIC (μg/mL) P. aeruginosa” value (Pseudomonas aeruginosa; 10 h cultivation at 37° C.) was 25 µg/mL. The “MIC (μg/mL) E. cloacae” value (Enterobacter cloacae; 10 h cultivation at 37° C.) was 25 µg/mL, the “MIC (μg/mL) M. catarrhalis” value (Moraxella catarrhalis; 10 h cultivation at 37° C.) was 12.5 µg/mL and the “MIC (μg/mL) S. marcescens” value (Serratia marcescens; 10 h cultivation at 37° C.) was 25 µg/mL. The “MIC (μg/mL) K. pneumonia” value (Klebsiella pneumonia; 10 h cultivation at 37° C.) was 12.5 µg/mL, the “MIC (μg/mL) P. mirabilis” value (Proteus mirabilis; 10 h cultivation at 37° C.) was 25 µg/mL and the MIC (E. coli DH5α) was 25 µg/mL. For the same substance, the “MIC (μg/mL) C. diversus” value (Citrobacter diversus; 10 h cultivation at 37° C.) was 25 µg/mL and the “MIC (μg/mL) A. hydrophila” value (Aeromonas hydrophila; 10 h cultivation at 37° C.) was 50 µg/mL.
For “PRT842 (CGCSFHSHCRKRGPGFCDECQDWTWGEHCERCRPGSFGNATGSRGCRP; listed as Homo sapiens)”, the “MIC (μg/mL) P. vulgaris” value (Proteus vulgaris; 10 h cultivation at 37° C.) was 12.5 µg/mL, the “MIC (μg/mL) E. coli BL21” value (E. coli BL21; [1]) was 12.5 µg/mL and the “MIC (μg/mL) P. aeruginosa” value (Pseudomonas aeruginosa; 10 h cultivation at 37° C.) was 25 µg/mL. The “MIC (μg/mL) E. cloacae” value (Enterobacter cloacae; 10 h cultivation at 37° C.) was 12.5 µg/mL, the “MIC (μg/mL) M. catarrhalis” value (Moraxella catarrhalis; 10 h cultivation at 37° C.) was 25 µg/mL and the “MIC (μg/mL) S. marcescens” value (Serratia marcescens; 10 h cultivation at 37° C.) was 25 µg/mL. For the same substance, the “MIC (μg/mL) K. pneumonia” value (Klebsiella pneumonia; 10 h cultivation at 37° C.) was 25 µg/mL, the “MIC (μg/mL) P. mirabilis” value (Proteus mirabilis; 10 h cultivation at 37° C.) was 12.5 µg/mL and the MIC (E. coli DH5α) was 12.5 µg/mL. For the same substance, the “MIC (μg/mL) C. diversus” value (Citrobacter diversus; 10 h cultivation at 37° C.) was 12.5 µg/mL and the “MIC (μg/mL) A. hydrophila” value (Aeromonas hydrophila; 10 h cultivation at 37° C.) was 25 µg/mL.
For “PRT1377 (PASACPGGCGPRELCRAGQCVCVEGFRGPDC; listed as Homo sapiens)”, the “MIC against P. vulgaris” value (Proteus vulgaris; [2]) was 50 µg/mL, the “MIC against E. coli BL21” value (E. coli BL21; [1]) was 50 µg/mL and the “MIC against P. aeruginosa” value (Pseudomonas aeruginosa; [3]) was 12.5 µg/mL. The “MIC against E. cloacae” value (Enterobacter cloacae; [4]) was 12.5 µg/mL, the “MIC against M. catarrhalis” value (Moraxella catarrhalis; [5]) was 50 µg/mL and the “MIC against S. marcescens” value (Serratia marcescens; [6]) was 12.5 µg/mL. For the same substance, the “MIC against K. pneumonia” value (Klebsiella pneumonia; [7]) was 50 µg/mL, the “MIC against P. mirabilis” value (Proteus mirabilis; [8]) was 12.5 µg/mL and the MIC (E. coli DH5α) was 25 µg/mL. The “MIC against C. diversus” value (Citrobacter diversus; [9]) was 12.5 µg/mL and the “MIC against A. hydrophila” value (Aeromonas hydrophila; [10]) was 50 µg/mL.
In the case of “PRT1239 (TIPICEGPDACQKDEVCVKPGLCRCKPGFFGAHCS; listed as Homo sapiens)”, the “MIC against P. vulgaris” value (Proteus vulgaris; Proteus vulgaris, 96-well plate, 37° C., 10 h) is reported as 50 µg/mL, the “MIC against E. coli BL21” value (E. coli BL21; E. coli BL21, 96-well plate, 37° C., 10 h) is reported as 12.5 µg/mL and the “MIC against P. aeruginosa” value (Pseudomonas aeruginosa; Pseudomonas aeruginosa, 96-well plate, 37° C., 10 h) is reported as 50 µg/mL. The “MIC against E. cloacae” value (Enterobacter cloacae; Enterobacter cloacae, 96-well plate, 37° C., 10 h) was 50 µg/mL, the “MIC against M. catarrhalis” value (Moraxella catarrhalis; Moraxella catarrhalis, 96-well plate, 37° C., 10 h) was 12.5 µg/mL and the “MIC against S. marcescens” value (Serratia marcescens; Serratia marcescens, 96-well plate, 37° C., 10 h) was 25 µg/mL. For the same substance, the “MIC against K. pneumonia” value (Klebsiella pneumonia; Klebsiella pneumonia, 96-well plate, 37° C., 10 h) was 12.5 µg/mL, the “MIC against P. mirabilis” value (Proteus mirabilis; Proteus mirabilis, 96-well plate, 37° C., 10 h) was 25 µg/mL and the MIC (E. coli DH5α) was 25 µg/mL. For the same substance, the “MIC against C. diversus” value (Citrobacter diversus; Citrobacter diversus, 96-well plate, 37° C., 10 h) was 50 µg/mL and the “MIC against A. hydrophila” value (Aeromonas hydrophila; Aeromonas hydrophila, 96-well plate, 37° C., 10 h) was 12.5 µg/mL.
For “PRT636 (DINECEHPGLCGPQGECLNTEGSFHCVCQQGFSISADGRTCE; listed as Homo sapiens)”, the “MIC P. vulgaris” value (Proteus vulgaris; 96-well plate, 37° C., 10 h) was 25 µg/mL, the “MIC E. coli BL21” value (E. coli BL21; 96-well plate, 37° C., 10 h) was 25 µg/mL and the “MIC P. aeruginosa” value (Pseudomonas aeruginosa; 96-well plate, 37° C., 10 h) was 50 µg/mL. For the same substance, the “MIC E. cloacae” value (Enterobacter cloacae; 96-well plate, 37° C., 10 h) was 12.5 µg/mL, the “MIC M. catarrhalis” value (Moraxella catarrhalis; 96-well plate, 37° C., 10 h) was 25 µg/mL and the “MIC S. marcescens” value (Serratia marcescens; 96-well plate, 37° C., 10 h) was 50 µg/mL. The “MIC K. pneumonia” value (Klebsiella pneumonia; 96-well plate, 37° C., 10 h) was 25 µg/mL, the “MIC P. mirabilis” value (Proteus mirabilis; 96-well plate, 37° C., 10 h) was 12.5 µg/mL and the MIC (E. coli DH5α) was 12.5 µg/mL. The “MIC C. diversus” value (Citrobacter diversus; 96-well plate, 37° C., 10 h) was 50 µg/mL and the “MIC A. hydrophila” value (Aeromonas hydrophila; 96-well plate, 37° C., 10 h) was 25 µg/mL.
With “PRT1486 (TVKSCDCLNGGSCVSDRNFSPGSGVYLCVCLPGFHGSLCE; listed as Homo sapiens)” the “MIC against P. vulgaris” value (Proteus vulgaris; [2]) was 12.5 µg/mL, the “MIC against E. coli BL21” value (E. coli BL21; [1]) was 12.5 µg/mL and the “MIC against P. aeruginosa” value (Pseudomonas aeruginosa; [3]) was 25 µg/mL. The “MIC against E. cloacae” value (Enterobacter cloacae; [4]) was 12.5 µg/mL, the “MIC against M. catarrhalis” value (Moraxella catarrhalis; [5]) was 25 µg/mL and the “MIC against S. marcescens” value (Serratia marcescens; [6]) was 12.5 µg/mL. For the same substance, the “MIC against K. pneumonia” value (Klebsiella pneumonia; [7]) was 25 µg/mL, the “MIC against P. mirabilis” value (Proteus mirabilis; [8]) was 12.5 µg/mL and the MIC (E. coli DH5α) was 12.5 µg/mL. The “MIC against C. diversus” value (Citrobacter diversus; [9]) was 12.5 µg/mL and the “MIC against A. hydrophila” value (Aeromonas hydrophila; [10]) was 25 µg/mL.
With “PRT454 (LPDQCTPNPCDRKGTQACQDLMGNFFCLCKAGWGGRLCD; listed as Homo sapiens)” the “MIC against P. vulgaris” value (Proteus vulgaris; 96-well plate, 37° C., 10 h) was 50 µg/mL, the “MIC against E. coli BL21” value (E. coli BL21; 96-well plate, 37° C., 10 h) was 12.5 µg/mL and the “MIC against P. aeruginosa” value (Pseudomonas aeruginosa; 96-well plate, 37° C., 10 h) was 25 µg/mL. For the same substance, the “MIC against E. cloacae” value (Enterobacter cloacae; 96-well plate, 37° C., 10 h) was 25 µg/mL, the “MIC against M. catarrhalis” value (Moraxella catarrhalis; 96-well plate, 37° C., 10 h) was 50 µg/mL and the “MIC against S. marcescens” value (Serratia marcescens; 96-well plate, 37° C., 10 h) was 12.5 µg/mL. For the same substance, the “MIC against K. pneumonia” value (Klebsiella pneumonia; 96-well plate, 37° C., 10 h) was 50 µg/mL, the “MIC against P. mirabilis” value (Proteus mirabilis; 96-well plate, 37° C., 10 h) was 12.5 µg/mL and the MIC (E. coli DH5α) was 50 µg/mL. The “MIC against C. diversus” value (Citrobacter diversus; 96-well plate, 37° C., 10 h) was 25 µg/mL and the “MIC against A. hydrophila” value (Aeromonas hydrophila; 96-well plate, 37° C., 10 h) was 12.5 µg/mL.
